Measurements published in patent US20100034746A1, “ANIMAL MODEL, SYSTEM, AND METHOD FOR SCREENING COMPOUNDS FOR ANTI[…]/OR TH[…]” (Piramal Life Sciences Limited, priority 2007, published 2010).

What was measured:
thrombus formation [1] = assay: Cross-circulation thrombosis model, cannulae connected with latex tubing; survival time of recipient after blocking trachea; assay type: in vivo, Wistar rats; conditions: cannula with latex tubing; for Survival time of the recipients, result in words: compared with vehicle/saline treated control animals; for Survival time (min) Mean ± S.E.: recipient rat
Text: Wistar rats (either sex; weighing 290-310 g) were used throughout the experiments. Animals were housed and cared for in accordance with the Guidelines in force published by CPCSEA (Committee for the Purpose of Control and Supervision of Experiments on Animals), Tamil Nadu, India. Procedures using laboratory animals were approved by the IAEC (Institutional Animal Ethics Committee) of the Research Centre of Nicholas Piramal India Limited, Mumbai, India.
In one experiment a pair of rats were anesthetized using urethane (1.5 g/kg; Fluka) by intra-peritoneal administration. After anesthetization, one of the jugular veins and carotid arteries of each of the rats were exposed and clamped. Polyethylene cannulae (0.76 mm ID and 1.22 mm OD, polyethylene tubing, each 6.0 cm in length; Portex Ltd) filled with normal saline (0.9%, w/v, sodium chloride, Merck) were introduced into these vessels and secured tightly by tying with cotton thread (No. 40, Madura Coats Ltd., India). Furthermore, trachea of any one of the rats was exposed and a piece of thread was put loosely around it (recipient). Then the arterial cannula of one of the rats was connected to the venous cannula of the other rat and vice versa, using 2.5 cm long piece of latex tubing (0.89 mm ID; PharMed, Cole-Parmer). FIG. 1 schematically illustrates these rats.
The experiment was initiated by opening the clamps on all the vessels, which initiated cross circulation of blood between the two animals. […] FIG. 2 schematically illustrates these rats.
Survival was monitored by the animal's effort to respire.
In another experiment, pairs of rats were treated with antithrombotic/thrombolytic agents selected from the following list:
The drug suspensions for oral use were prepared in the vehicle, carboxymethyl cellulose (CMC, 0.5% w/v, Sigma), using polyoxyethylenesorbitan monooleate (Tween 80, Sigma) as a wetting agent. Commercially available streptokinase solution was diluted with normal saline to an appropriate concentration for the i.v. use.
Vehicle/drugs were administered to rats orally at the doses mentioned above, in a volume of 1 ml/kg. With the exception of streptokinase, all other drugs were administered once daily for three consecutive days and the experiment was performed on the third day, one hour after the administration of the last dose. The vehicle-treated animals were used as controls.
Streptokinase was administered as a continuous infusion at a dose of 60,000 I.U./ml/kg/hour intravenously, through the femoral vein of the recipient and was administered only on the day of experiment. As a source of plasminogen, human plasma was injected to the animal intravenously at a dose of 1 ml/kg, just before blocking the trachea. Streptokinase infusion was initiated two minutes after blocking the trachea of the recipient. Saline-infused animals were used as control for streptokinase-treated animals.
(§1) The survival time of the recipients in the abovementioned experiments was recorded.

thrombus formation [2] = assay: Cross-circulation thrombosis model, cannulae connected with damaged rat thoracic aorta; survival time of recipient after blocking trachea; assay type: in vivo, Wistar rats
Text: In the present experiment, the piece of latex tubing used in Example 1 was replaced by a piece of rat thoracic aorta with damaged endothelium, so that the anti-thrombotic effect of the compounds could be studied in a near natural situation.
Maintenance of a patent vasculature is critical to provide blood flow to dependent tissues. […] Following vessel injury, active hemostasis results from vasoconstriction, adherence of activated platelets to damaged endothelium, their aggregation and activation of coagulation enzymes, finally resulting into thrombosis. It has been shown that chronic carbon tetrachloride treatment to rats causes serious damage to vascular endothelial cells and thus the blood vessels get damaged. It was thought of using these damaged vessels, instead of latex tubing (used in Example 1), to connect arterial and venous cannulae of donor and recipient, in order to mimic the physiological process of thrombus formation.
They were administered carbon tetrachloride (Fluka) in olive oil (Figaro, Spain) (1:1 v/v), 0.5 ml/kg, intraperitoneally, twice a week for eight continuous weeks. […]
In spite of the blocked trachea, the recipient survived, as long as the oxygenated blood supply from the donor continued. Survival was monitored by the animal's effort to respire. […]
as §1

[3] = 20 mg/kg p.o. once daily for three days, 1 h after last dose, CMC control 10.9 ± 0.70

| Molecule | Survival time of the recipients, result in words (thrombus formation [1]) | Survival time (min) Mean ± S.E. (thrombus formation [1]; [3]) [min] | also measured |
| --- | --- | --- | --- |
| CC(=O)Oc1ccccc1C(=O)O [Aspirin, acetylsalicylic acid] | Significant increase in the survival time | – | Survival time (min) Mean ± S.E. (thrombus formation [1]; 20 mg/kg p.o. once daily for three days, 1 h after last dose, CMC control 10.9 ± 0.70, 20 mg/kg): 45.3 ± 4.40 min; Survival time of the recipient, result in words (thrombus formation [2]; cannula with damaged blood vessel, compared with appropriate control animals): Significant increase in the survival time; Survival time (min) Mean ± S.E. (thrombus formation [2]; recipient rat, cannula with damaged thoracic aorta, 20 mg/kg p.o. once daily for three days, CMC control 5.18 ± 0.99): 33.9 ± 4.58 min |
| Streptokinase | significant prolongation of the survival time | – | Survival time (min) Mean ± S.E. (thrombus formation [1]; 60,000 IU/ml/kg/hr i.v. continuous infusion, human plasma 1 ml/kg i.v., saline control 10.4 ± 0.91): 89.5 ± 10.55 min |
| COC(=O)[C@H](c1ccccc1Cl)N1CCc2sccc2C1 [Clopidogrel, Clopidogrel bisulphate] | – | 47.8 ± 3.78 | – |
| OCCN(CCO)c1nc(N2CCCCC2)c2nc(N(CCO)CCO)nc(N3CCCCC3)c2n1 [Dipyridamole] | – | 38.5 ± 1.55 | – |
